The text below walks through data of ChEMBL document CHEMBL1201862, “PubChem BioAssay data set” (2004).

Each structure is given as a SMILES string.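 Compound exposure: 48 hours, 5 concentrations, 96-well plates. Here, GI50 denotes the concentration required for 50% inhibition of growth.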 Activity calls are given as the source filed them. Rule as the data show it: active = GI50 up to about 1.1 µM and inactive = higher.

Among the test systems are ACHN; BT-549; DU-145; HCC 2998; HL-60; HOP-62; HOP-92; MCF7; MDA-MB-231; MDA-MB-435; NCI-H226; OVCAR-4; OVCAR-8; RXF 393; SF-268; SF-539; SK-MEL-2; SR; T47D; TK-10.
What all share (test): inhibition of tumour cell growth, NCI panel, 48 h

`Cc1cc(=O)n2nc(CSc3nnc(Sc4cc(O)ccc4O)s3)sc2n1`: the GI50 with ACHN was > 100 µM (inactive); in the assay with BT-549 it was 39.3 µM (inactive); in the assay on DU-145, > 100 µM (inactive); in the assay with HCC 2998, > 100 µM (inactive); with HL-60, 26.4 µM (inactive); with HOP-62, > 100 µM (inactive). For the same compound, the GI50 with HOP-92 is 35.4 µM (inactive); in the assay with MCF7 it was 14.2 µM (inactive); in the assay with MDA-MB-231 it was 34.9 µM (inactive); with MDA-MB-435 it was 18.5 µM (inactive); with NCI-H226, > 100 µM (inactive); in the assay on OVCAR-4 it was 54.7 µM (inactive). Besides, the GI50 in the assay on OVCAR-8 was 67.1 µM (inactive); with RXF 393, 51.6 µM (inactive); in the assay on SF-268 it was 54.6 µM (inactive); in the assay on SF-539, > 100 µM (inactive); in the assay on SK-MEL-2, > 100 µM (inactive); in the assay on SR it was 28.3 µM (inactive). The GI50 in the assay with T47D was 32.1 µM (inactive); in the assay with TK-10, > 100 µM (inactive).

Turning to `N#Cc1c(Cl)cc(C#N)n2c1nc1ccccc12`, the GI50 in the assay with ACHN was 15.2 µM (inactive); in the assay on BT-549, 6.12 µM (inactive); in the assay with DU-145 it was 20.8 µM (inactive); with HCC 2998, 21.2 µM (inactive); in the assay with HL-60 it was 1.18 µM (inactive); in the assay on HOP-62, 21.6 µM (inactive). The GI50 with HOP-92 was 8.04 µM (inactive); with MCF7 it was 9.2 µM (inactive); in the assay on MDA-MB-231 it was 8.87 µM (inactive); with MDA-MB-435, 11.7 µM (inactive); in the assay on NCI-H226, 33.7 µM (inactive); in the assay with OVCAR-4, 13.8 µM (inactive). The GI50 is 5.92 µM (inactive) in the assay with OVCAR-8; 14.2 µM (inactive) in the assay with RXF 393; 5.6 µM (inactive) with SF-268; 7.24 µM (inactive) in the assay with SF-539; 17 µM (inactive) with SK-MEL-2; 0.532 µM (active) with SR. Moreover, the GI50 in the assay on T47D was 3.12 µM (inactive); in the assay on TK-10, 13.2 µM (inactive).

On to `Cc1cc2c(cc1-c1cc3c(cc1C)C(C(C)C)=C(O)C(=O)/C3=C\NCC1CCCN3CCCCC13)/C(=C/NCC1CCCN3CCCCC13)C(=O)C(O)=C2C(C)C` (stereo not given), for which the GI50 was 3.81 µM (inactive) with ACHN; 15.9 µM (inactive) in the assay with BT-549; 11 µM (inactive) in the assay with DU-145; 17.5 µM (inactive) in the assay with HCC 2998; 2.97 µM (inactive) in the assay on HL-60; 4.27 µM (inactive) in the assay with HOP-62. In addition, the GI50 is 15.8 µM (inactive) in the assay on HOP-92; 12.4 µM (inactive) in the assay on MCF7; 4.16 µM (inactive) in the assay with MDA-MB-231; 7.62 µM (inactive) with MDA-MB-435; 11 µM (inactive) with NCI-H226; 6.79 µM (inactive) in the assay on OVCAR-4. For the same compound, the GI50 in the assay with OVCAR-8 is 3.61 µM (inactive); in the assay on RXF 393 it was 5.93 µM (inactive); in the assay on SF-268 it was 3.85 µM (inactive); with SF-539, 14.9 µM (inactive); in the assay with SK-MEL-2, 8.02 µM (inactive); in the assay with SR it was 26.2 µM (inactive). The GI50 in the assay on T47D was 8.05 µM (inactive); in the assay with TK-10, 8.36 µM (inactive).
